Where two headings read alike, the source gives them in different places.
How the values were obtained:
[1] = biological target: T1, hPTP1B (Homo sapiens, UniProt P18031); conditions: positive control; literature reference Seto et al. J. Med. Chem. 2002; cited from earlier work
T1 construct: The catalytic structural domain of hPTP1B was expressed in E-coli system by a molecular biology protocol; made in house; host or cells: E. coli
T1 sequence (P18031 3-277 limits assumed): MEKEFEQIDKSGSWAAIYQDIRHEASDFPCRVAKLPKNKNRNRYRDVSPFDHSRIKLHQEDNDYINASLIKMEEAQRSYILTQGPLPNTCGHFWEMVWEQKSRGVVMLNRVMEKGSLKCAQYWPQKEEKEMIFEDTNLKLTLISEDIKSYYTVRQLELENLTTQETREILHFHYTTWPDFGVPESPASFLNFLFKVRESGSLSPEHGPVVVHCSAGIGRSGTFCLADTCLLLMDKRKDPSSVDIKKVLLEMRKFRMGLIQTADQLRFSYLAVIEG

[2] = biological target: T1, hPTP1B; experiment: PTP1B inhibition test (pNPP hydrolysis, absorption at 410 nm); assay type: biochemical; conditions: recombinant hPTP1B catalytic domain 40 nM, 2 mM pNPP, pH 7.0, 2% DMSO; read-out: IC50(μM), inhibitory activity of the test compounds against PTP1B
Text: 1) Test principle: The catalytic structural domain of hPTP1B was expressed in E-coli system by a molecular biology protocol. The purified hPTP1B recombinant protein can hydrolyze the phosphoester linkage of the pNPP substrate to obtain a product which has a strong light absorption at 410 nm. Therefore, the variation of the enzyme activity and the inhibitory activity of a compound against the enzyme can be observed by directly monitoring the changes in the light absorption at 410 nm. A typical activity assay system is as follows: 50 mM Mops, PH 7.0, 1 mM EDTA, 2 mM DTT, 2 mM PNPP, 2% DMSO, 40 nM hPTP1B.
2) Measuring Index: The light absorption was dynamically measured at 410 nm for 3 min. The slope of the first-order reaction of the dynamic curve thereof was considered as the activity index of the enzymes.
3) Measurement: • 1. 1 mg sample was dissolved in 200 μL DMSO. To each wall of the A2-H11 of a 96-wells polypropylene plate, 20 μL of the solution was added, followed by addition of 80 μL DMSO. The plate was used as mother plate. • 2. To each corresponding wall of a 96-wells polypropylene plate, 2 μL of sample was added with a Biomek 2000 automation workstation. The plate was used as daughter plate for screening. • 3. To each wall of A1-D1 and E12-H12, 2 μL, DMSO was added. These walls were regarded as 100% of enzyme activity for control. • 4. To each wall of A12-D12 and E1-H1, 2 μL positive control with different concentrations (four concentrations prepared by double-fold dilution from […]) was added respectively. • 5. To each wall of A1-H12, 88 μL Assay mix was added respectively. • 6. To each wall of A1-H12, 10 μL hPTP1B was added respectively. • 7. The light absorption was measured at 410 nm for 3 min on a SpectraMAX 340 spectrometer. • 8. Exporting the output into a TXT file, and opening the file with Excel. The average of the Vmax values of A1-D1 and E12-H12 was considered as 100% of enzyme activity.
4) Results: The screening results were the % inhibitory rate against the enzyme when the compound concentration was 20 μg/mL. 1050 value was calculated according to a conventional screening when the inhibitory rate exceeded 50%. The […] value of the positive control, 4-[4-(4-oxalyl-phenoxymethyl)-benzyloxy]-phenyl-oxo-acetic acid, is 5.4 μM [Christopher T. Seto, et al. J. Med. Chem., 2002, 45, 3946-3952].

[3] = system: insulin receptors (IRs) in CHO/IR cells; experiment: Effect on the phosphorylation level of insulin receptors in CHO/IR cells; assay type: cell-based; conditions: CHO/IR cells, 0.21, 0.43, 0.85, 1.70 μM, 10 nM insulin stimulation, FIG. 1
Text: 1). Experimental principle: The phosphorylation levels of insulin receptors (IRs) in cells sensitive to insulin are regulated by PTK and PTPase. PTP1B is a negative regulator during the process. It can be evaluated by measuring the phosphorylation level of IRs in CHO/IR cells whether the PTP inhibitor has entered into the cells and how its effect in cells is.
2). Experimental Protocol: • 1. Cell inoculation: Cells in good growth condition were inoculated into a 6-well plate with a density of 3-4×10^5 cells/well. To each well was added 2 mL F12 culture media containing 10% FBS. • 2. Starvation: After cultivation for 24 h, to each well was added 2 mL serum-free F12 culture media. Then the plate was cultivated overnight. • 3. Administration: After removing the old culture media, to each well was added 0.9 mLserum-free F12 culture media containing the test compound, wherein 1 mM Na3VO4 and 0.1% DMSO were used as positive and negative control, respectively. The plate was incubated for 2-4 h. • 4. Insulin stimulation: To each well was added 100 μL 100 nM insulin solution so that the final concentration was 10 nM. The reaction was carried out for 10 min. • 5. Sample collection: After discarding the culture media, to each well was added 150 μL×1 loading buffer. […]
3). Experimental results: The experiment evaluated the effect of WY586s on the phosphorylation levels of insulin receptors in CHO/IR cells. […]

Row | Compound | IC50 [2] [µM] | further results
1 | O=C(O)C(=O)c1ccc(OCc2ccc(COc3ccc(C(=O)C(=O)O)cc3)cc2)cc1 [4-[4-(4-oxalyl-phenoxymethyl)-benzyloxy]-phenyl-oxo-acetic acid] |  | IC50 [1]: 5.4 µM
2 | CCOC(=O)/C(C)=C\C(C)=C\c1csc([C@H](Cc2ccc(OCc3ccccc3)cc2)NC(=O)CC2CCCCC2)n1 [WY586s] | 2.48 | phosphorylation level of IR (p-IR) [3]: significantly increases with the increase of the concentration of the inhibitor
3 | C/C(=C/C(C)=C/c1nc([C@H](Cc2ccc(OCc3ccccc3)cc2)NC(=O)C2CCCCC2)sc1-c1ccccc1)C(=O)O [WY620a] | 4 | 
4 | CCOC(=O)/C(C)=C/C(C)=C\c1csc([C@H](Cc2ccc(OCc3ccccc3)cc2)NC(=O)C2CCCCC2)n1 [WY572-3] | 8.69 | 
5 | CCOC(=O)/C(C)=C\C(C)=C\c1csc([C@H](Cc2ccc(OCc3ccccc3)cc2)NC(=O)C(=O)COCc2ccccc2)n1 [WY638] | 4.1 | 
6 | CCOC(=O)/C(C)=C\C(C)=C\c1csc([C@H](Cc2ccc(OCc3ccccc3)cc2)NC(=O)C2CCC2)n1 [WY544s] | > 40 | 
7 | CCOC(=O)/C(C)=C\C(C)=C\c1csc([C@H](Cc2ccc(OCc3ccccc3)cc2)NC(=O)N2CCC(C(=O)OCC)CC2)n1 [WY645s] | 10.5 | 
8 | CCOC(=O)/C(C)=C\C(C)=C\c1csc([C@H](Cc2ccc(OCc3ccccc3)cc2)NC(=O)C(=O)C2CC2)n1 [WY558] | 8.14 | 
9 | CCOC(=O)/C(C)=C\C(C)=C\c1csc([C@H](Cc2ccc(OCc3ccccc3)cc2)NC(=O)N2CCC(C(=O)O)CC2)n1 [WY617a] | 6.47 | 
10 | CCOC(=O)/C(C)=C\C(C)=C\c1nc([C@H](Cc2ccc(OCc3ccccc3)cc2)NC(=O)C2CCCCC2)sc1CC(C)C [WY628z] | 6.68 | 
11 | CCOC(=O)/C(C)=C\C(C)=C\c1csc([C@H](Cc2ccc(Oc3ccc([N+](=O)[O-])cc3F)cc2)NC(=O)C2CCCCC2)n1 [WY621h] | > 35 | 
12 | CCOC(=O)/C(C)=C/C(C)=C/c1csc([C@H](Cc2ccc(OCc3ccccc3)cc2)NC(=O)C2CCCCC2)n1 [WY572-2] | 6.38 | 
13 | CCOC(=O)/C(C)=C\C(C)=C\c1nc([C@@H](Cc2ccc(OCc3ccccc3)cc2)NC(=O)C2CCCCC2)sc1CC(C)C [WY628z2] | 10.5 | 
14 | CCOC(=O)/C(C)=C\C(C)=C\c1csc([C@H](Cc2ccccc2)NC(=O)C2CCCCC2)n1 [WY466h] | 34.2 | 
15 | CCOC(=O)/C(C)=C\C(C)=C\c1csc([C@H](Cc2ccc(OCc3ccccc3)cc2)NC(=O)c2ccc(OC)cc2)n1 [WY596s] | 44.8 | 
16 | CCCCOc1ccc(C[C@H](NC(=O)C2CCCCC2)c2nc(/C=C(C)/C=C(/C)C(=O)OCC)cs2)cc1 [WY538h] | 22.1 | 
17 | CCOC(=O)/C(C)=C\C(C)=C\c1csc([C@H](Cc2ccc(OCc3ccncc3)cc2)NC(=O)C2CCCCC2)n1 [WY573h4] | > 40 | 
18 | C/C(=C/C(C)=C/c1csc([C@H](Cc2ccc(OCc3ccccc3)cc2)NC(=O)CC2CCCCC2)n1)C(=O)O [WY558a] | 9.32 | 
19 | CCOC(=O)/C(C)=C\C(C)=C\c1csc([C@H](Cc2ccc(OCc3ccccc3)cc2)NC(=O)C2CCN(C)CC2)n1 [WY587s] | > 35 | 
20 | C/C(=C/C(C)=C/c1nc([C@H](Cc2ccc(OCc3ccccc3)cc2)NC(=O)CC2CCCCC2)sc1-c1ccccc1)C(=O)O [WY634a] | 3.97 | 
21 | CCOC(=O)/C(C)=C\C(C)=C\c1csc([C@H](Cc2ccc(OCc3ccccn3)cc2)NC(=O)C2CCCCC2)n1 [WY573h] | > 35 | 
